Laboratory results: EP4722207A1, “OXOISOINDOLINYL-SUBSTITUTED TETRAHYDROPYRIMIDINEDIONE DERIVATIVE AND USE THEREOF” (Gluetacs Therapeutics (Shanghai) Co., Ltd., priority 2023, dated 2024)

Experiments:
Type in all cases: cell-based
[1] = biological target: T1, IKZF2 (Homo sapiens, UniProt Q96SW2+Q9UKS7); experiment: Western-blot assay, substrate protein degradation in hPBMCs: IKZF2; details: for IKZF2 substrate protein remaining %: compounds at 50 nM and 500 nM, 24 hours; for substrate protein remaining % IKZF2: 24 hours of compound treatment, 50 nM and 500 nM
T1 construct: effects of the compounds of the present disclosure on the expression of target proteins in cells; endogenous in cells; host or cells: human PBMCs (hPBMCs)

[2] = biological target: T2, GSPT1 (Homo sapiens, UniProt P15170+Q96SW2); experiment: Western-blot assay, substrate protein degradation in hPBMCs: GSPT1; details: for GSPT1 substrate protein remaining %: compounds at 50 nM and 500 nM, 24 hours; for substrate protein remaining % GSPT1: 24 hours of compound treatment, 50 nM and 500 nM
T2 construct: effects of the compounds of the present disclosure on the expression of target proteins in cells; endogenous in cells; host or cells: human PBMCs (hPBMCs)

[3] = biological target: T3, IKZF3 (Homo sapiens, UniProt Q96SW2+Q9UKT9); experiment: Western-blot assay, substrate protein degradation in hPBMCs: IKZF3; details: for IKZF3 substrate protein remaining %: compounds at 50 nM and 500 nM, 24 hours; for substrate protein remaining % IKZF3: 24 hours of compound treatment, 50 nM and 500 nM
T3 construct: effects of the compounds of the present disclosure on the expression of target proteins in cells; endogenous in cells; host or cells: human PBMCs (hPBMCs)

[4] = biological target: T4, WEE1 (Homo sapiens, UniProt P30291+Q96SW2); experiment: Western-blot assay, substrate protein degradation in hPBMCs: WEE1; details: for WEE1 substrate protein remaining %: compounds at 50 nM and 500 nM, 24 hours; for substrate protein remaining % WEE1: 24 hours of compound treatment, 50 nM and 500 nM
T4 construct: effects of the compounds of the present disclosure on the expression of target proteins in cells; endogenous in cells; host or cells: human PBMCs (hPBMCs)

[5] = biological target: T5, IKZF1 (Homo sapiens, UniProt Q13422+Q96SW2); experiment: Western-blot assay, substrate protein degradation in hPBMCs: IKZF1; details: for IKZF1 substrate protein remaining %: compounds at 50 nM and 500 nM, 24 hours; for substrate protein remaining % IKZF1: 24 hours of compound treatment, 50 nM and 500 nM
T5 construct: effects of the compounds of the present disclosure on the expression of target proteins in cells; endogenous in cells; host or cells: human PBMCs (hPBMCs)

[6] = biological target: T6, CK1α (Homo sapiens, UniProt P48729+Q96SW2); experiment: Western-blot assay, substrate protein degradation in hPBMCs: CK1α; details: for CK1α substrate protein remaining %: compounds at 50 nM and 500 nM, 24 hours; for substrate protein remaining % CK1α: 24 hours of compound treatment, 50 nM and 500 nM
T6 construct: effects of the compounds of the present disclosure on the expression of target proteins in cells; endogenous in cells; host or cells: human PBMCs (hPBMCs)
T6 sequence (P48729 whole entry): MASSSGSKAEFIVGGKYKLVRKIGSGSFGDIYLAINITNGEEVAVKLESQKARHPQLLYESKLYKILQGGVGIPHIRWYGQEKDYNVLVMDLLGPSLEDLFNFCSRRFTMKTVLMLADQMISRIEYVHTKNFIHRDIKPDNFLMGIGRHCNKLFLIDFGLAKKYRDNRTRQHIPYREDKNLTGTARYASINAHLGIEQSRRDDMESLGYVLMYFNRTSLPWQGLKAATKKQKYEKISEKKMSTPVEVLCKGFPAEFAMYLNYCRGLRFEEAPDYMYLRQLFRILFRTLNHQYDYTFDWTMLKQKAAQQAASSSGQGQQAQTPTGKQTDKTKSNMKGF
T6 sequence (Q96SW2 whole entry): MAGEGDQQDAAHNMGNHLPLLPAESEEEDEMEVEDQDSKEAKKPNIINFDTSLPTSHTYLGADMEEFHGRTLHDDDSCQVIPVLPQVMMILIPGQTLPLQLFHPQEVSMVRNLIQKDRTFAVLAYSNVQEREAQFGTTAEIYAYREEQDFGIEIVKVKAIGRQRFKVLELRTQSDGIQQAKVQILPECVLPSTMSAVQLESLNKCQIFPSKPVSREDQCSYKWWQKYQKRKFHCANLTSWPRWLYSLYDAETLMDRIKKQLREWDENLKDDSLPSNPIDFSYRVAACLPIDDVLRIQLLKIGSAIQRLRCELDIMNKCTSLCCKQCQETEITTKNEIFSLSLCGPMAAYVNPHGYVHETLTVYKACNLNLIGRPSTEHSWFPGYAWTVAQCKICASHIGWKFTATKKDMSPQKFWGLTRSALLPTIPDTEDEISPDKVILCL
T6 sequence (Q16531 whole entry partner): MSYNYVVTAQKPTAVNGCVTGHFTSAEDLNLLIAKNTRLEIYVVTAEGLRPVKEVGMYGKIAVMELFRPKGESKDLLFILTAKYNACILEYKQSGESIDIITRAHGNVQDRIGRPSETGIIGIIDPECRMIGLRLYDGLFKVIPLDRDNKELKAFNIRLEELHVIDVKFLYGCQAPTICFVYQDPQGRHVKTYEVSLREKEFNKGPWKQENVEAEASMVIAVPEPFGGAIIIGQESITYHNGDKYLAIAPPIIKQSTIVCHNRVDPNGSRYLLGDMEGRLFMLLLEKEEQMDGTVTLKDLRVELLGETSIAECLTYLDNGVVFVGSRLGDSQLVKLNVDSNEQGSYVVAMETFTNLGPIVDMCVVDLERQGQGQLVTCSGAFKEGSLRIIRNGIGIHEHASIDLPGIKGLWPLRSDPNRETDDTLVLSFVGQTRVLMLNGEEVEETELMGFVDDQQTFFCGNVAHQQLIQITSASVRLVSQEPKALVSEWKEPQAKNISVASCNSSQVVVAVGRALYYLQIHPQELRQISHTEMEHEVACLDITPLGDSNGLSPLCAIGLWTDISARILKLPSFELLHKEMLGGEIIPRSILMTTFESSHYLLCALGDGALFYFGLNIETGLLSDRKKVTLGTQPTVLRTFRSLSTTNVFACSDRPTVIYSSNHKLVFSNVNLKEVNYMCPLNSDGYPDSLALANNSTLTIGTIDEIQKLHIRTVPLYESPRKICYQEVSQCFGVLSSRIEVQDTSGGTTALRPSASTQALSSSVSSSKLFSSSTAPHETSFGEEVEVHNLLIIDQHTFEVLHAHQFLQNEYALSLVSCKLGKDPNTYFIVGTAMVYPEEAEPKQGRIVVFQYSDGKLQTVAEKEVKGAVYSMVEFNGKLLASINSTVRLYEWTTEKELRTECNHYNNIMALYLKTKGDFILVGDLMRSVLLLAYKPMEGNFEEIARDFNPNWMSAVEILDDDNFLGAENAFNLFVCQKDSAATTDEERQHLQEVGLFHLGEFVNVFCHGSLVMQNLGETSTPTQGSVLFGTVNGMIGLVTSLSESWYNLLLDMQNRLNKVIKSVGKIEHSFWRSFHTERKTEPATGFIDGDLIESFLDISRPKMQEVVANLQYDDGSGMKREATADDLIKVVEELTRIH

T4 sequence (P30291 whole entry): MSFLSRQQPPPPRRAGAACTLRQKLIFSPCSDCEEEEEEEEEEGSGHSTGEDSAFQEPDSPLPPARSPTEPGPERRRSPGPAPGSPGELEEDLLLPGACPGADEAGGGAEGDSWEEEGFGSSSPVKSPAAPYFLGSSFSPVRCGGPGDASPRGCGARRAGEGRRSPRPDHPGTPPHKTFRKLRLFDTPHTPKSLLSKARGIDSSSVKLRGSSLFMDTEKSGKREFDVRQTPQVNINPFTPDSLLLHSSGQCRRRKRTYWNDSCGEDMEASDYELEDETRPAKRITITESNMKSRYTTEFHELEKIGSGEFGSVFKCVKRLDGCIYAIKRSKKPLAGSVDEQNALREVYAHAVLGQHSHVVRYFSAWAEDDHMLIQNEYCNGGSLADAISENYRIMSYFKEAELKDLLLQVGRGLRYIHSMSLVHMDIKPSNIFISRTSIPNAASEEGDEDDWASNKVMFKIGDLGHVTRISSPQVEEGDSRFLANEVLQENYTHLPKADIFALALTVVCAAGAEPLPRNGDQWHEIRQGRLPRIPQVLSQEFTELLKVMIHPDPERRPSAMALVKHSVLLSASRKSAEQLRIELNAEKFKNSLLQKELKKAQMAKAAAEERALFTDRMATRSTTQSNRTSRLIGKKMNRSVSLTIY
T4 sequence (Q96SW2 whole entry): as the sequence (Q96SW2 whole entry) above
T4 sequence (Q16531 whole entry partner): as the sequence (Q16531 whole entry partner) above
T3 sequence (Q9UKT9 whole entry): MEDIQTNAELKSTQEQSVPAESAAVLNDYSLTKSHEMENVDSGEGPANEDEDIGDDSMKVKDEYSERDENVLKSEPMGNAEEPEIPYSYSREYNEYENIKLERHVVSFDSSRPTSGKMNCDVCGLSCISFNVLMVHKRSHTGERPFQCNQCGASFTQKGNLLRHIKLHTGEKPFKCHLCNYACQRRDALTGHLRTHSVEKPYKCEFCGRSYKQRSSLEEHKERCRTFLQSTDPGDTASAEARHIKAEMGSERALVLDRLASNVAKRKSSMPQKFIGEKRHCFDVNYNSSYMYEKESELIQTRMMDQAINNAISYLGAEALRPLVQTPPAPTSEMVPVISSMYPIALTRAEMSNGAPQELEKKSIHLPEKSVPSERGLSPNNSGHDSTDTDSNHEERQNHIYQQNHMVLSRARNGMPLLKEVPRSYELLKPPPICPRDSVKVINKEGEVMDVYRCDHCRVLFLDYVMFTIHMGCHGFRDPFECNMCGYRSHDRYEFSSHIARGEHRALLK
T3 sequence (Q96SW2 whole entry): as the sequence (Q96SW2 whole entry) above
T3 sequence (Q16531 whole entry partner): as the sequence (Q16531 whole entry partner) above
T5 sequence (Q13422 whole entry): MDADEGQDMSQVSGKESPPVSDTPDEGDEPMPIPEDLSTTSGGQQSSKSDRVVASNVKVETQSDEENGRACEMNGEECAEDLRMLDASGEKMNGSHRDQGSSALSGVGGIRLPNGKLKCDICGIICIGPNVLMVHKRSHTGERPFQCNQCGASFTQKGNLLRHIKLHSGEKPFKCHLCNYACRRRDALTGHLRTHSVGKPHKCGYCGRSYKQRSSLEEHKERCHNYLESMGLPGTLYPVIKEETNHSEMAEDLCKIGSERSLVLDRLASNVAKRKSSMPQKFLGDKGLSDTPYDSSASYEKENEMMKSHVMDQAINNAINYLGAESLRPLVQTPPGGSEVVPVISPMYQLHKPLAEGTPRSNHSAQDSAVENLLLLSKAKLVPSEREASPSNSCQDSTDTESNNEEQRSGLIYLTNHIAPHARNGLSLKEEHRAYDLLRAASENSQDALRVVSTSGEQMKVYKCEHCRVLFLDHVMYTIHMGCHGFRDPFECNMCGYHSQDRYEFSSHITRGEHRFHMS
T5 sequence (Q96SW2 whole entry): as the sequence (Q96SW2 whole entry) above
T5 sequence (Q16531 whole entry partner): as the sequence (Q16531 whole entry partner) above
T2 sequence (P15170 whole entry): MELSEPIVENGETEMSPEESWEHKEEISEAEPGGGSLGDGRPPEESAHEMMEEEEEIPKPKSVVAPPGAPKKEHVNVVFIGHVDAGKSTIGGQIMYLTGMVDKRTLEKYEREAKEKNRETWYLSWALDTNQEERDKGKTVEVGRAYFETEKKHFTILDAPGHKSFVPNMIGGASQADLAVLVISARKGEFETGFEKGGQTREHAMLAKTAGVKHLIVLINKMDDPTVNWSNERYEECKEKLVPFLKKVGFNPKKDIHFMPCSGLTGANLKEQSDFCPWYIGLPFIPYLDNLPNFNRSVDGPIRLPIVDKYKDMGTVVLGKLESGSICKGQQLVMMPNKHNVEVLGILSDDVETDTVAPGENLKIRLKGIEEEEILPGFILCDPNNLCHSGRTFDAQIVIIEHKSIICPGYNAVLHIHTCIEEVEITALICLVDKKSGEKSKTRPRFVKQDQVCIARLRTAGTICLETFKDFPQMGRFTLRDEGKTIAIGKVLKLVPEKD
T2 sequence (Q96SW2 whole entry): as the sequence (Q96SW2 whole entry) above
T2 sequence (Q16531 whole entry partner): as the sequence (Q16531 whole entry partner) above

O=C1CCN(N2C(=O)c3ccc(CN4CCN(c5ccccc5Br)CC4)cc3C2=O)C(=O)N1 [GT-06727, 5-((4-(2-bromophenyl)piperazin-1-yl)methyl)-2-(2,4-dioxotetrahydropyrimidin-1(2H)-yl)isoindoline-1,3-dione]
IKZF2 substrate protein remaining % [1]: A ("A" is defined as 0% ≤ substrate protein remaining % ≤ 80%)
GSPT1 substrate protein remaining % [2]: B ("B" is defined as 80%< substrate protein remaining %≤ 100%)
IKZF3 substrate protein remaining % [3]: A ("A" is defined as 0% ≤ substrate protein remaining % ≤ 80%)
WEE1 substrate protein remaining % [4]: B ("B" is defined as 80%< substrate protein remaining %≤ 100%)
IKZF1 substrate protein remaining % [5]: B ("B" is defined as 80%< substrate protein remaining %≤ 100%)
CK1α substrate protein remaining % [6]: A ("A" is defined as 0% ≤ substrate protein remaining % ≤ 80%)

O=C1CCN(N2Cc3cc(CN4CCC(N5C(=O)COc6cc(F)ccc65)CC4)ccc3C2=O)C(=O)N1 [GT-07586, 1-(5-((4-(7-fluoro-3-oxo-2,3-dihydro-4H-benzo[b][1,4]oxazin-4-yl)piperidin-1-yl)methyl)-1-oxoisoindolin-2-yl)dihydropyrimidine-2,4(1H,3H)-dione]
substrate protein remaining % IKZF2 [1]: B (80%< substrate protein remaining %≤ 100%)
substrate protein remaining % GSPT1 [2]: A (0% ≤ substrate protein remaining % ≤ 80%)
substrate protein remaining % IKZF3 [3]: B (80%< substrate protein remaining %≤ 100%)
substrate protein remaining % WEE1 [4]: A (0% ≤ substrate protein remaining % ≤ 80%)
substrate protein remaining % IKZF1 [5]: A (0% ≤ substrate protein remaining % ≤ 80%)
substrate protein remaining % CK1α [6]: B (80%< substrate protein remaining %≤ 100%)

O=C1CCN(N2C(=O)c3ccc(CN4CCN(c5cccc(F)c5)CC4)cc3C2=O)C(=O)N1 [GT-06724, 2-(2,4-dioxotetrahydropyrimidin-1(2H)-yl)-5-((4-(3-fluorophenyl)piperazin-1-yl)methyl)isoindoline-1,3-dione]
IKZF2 substrate protein remaining % [1]: B ("B" is defined as 80%< substrate protein remaining %≤ 100%)
GSPT1 substrate protein remaining % [2]: B ("B" is defined as 80%< substrate protein remaining %≤ 100%)
IKZF3 substrate protein remaining % [3]: B ("B" is defined as 80%< substrate protein remaining %≤ 100%)
WEE1 substrate protein remaining % [4]: A ("A" is defined as 0% ≤ substrate protein remaining % ≤ 80%)
IKZF1 substrate protein remaining % [5]: A ("A" is defined as 0% ≤ substrate protein remaining % ≤ 80%)
CK1α substrate protein remaining % [6]: B ("B" is defined as 80%< substrate protein remaining %≤ 100%)

O=C1CCN(N2Cc3cc(CN4CCCN(c5cccc(Cl)c5Cl)CC4)ccc3C2=O)C(=O)N1 [GT-07431, 1-(5-((4-(2,3-dichlorophenyl)-1,4-diazepan-1-yl)methyl)-1-oxoisoindolin-2-yl)dihydropyrimidine-2,4(1H,3H)-dione]
substrate protein remaining % IKZF2 [1]: B (80%< substrate protein remaining %≤ 100%)
substrate protein remaining % GSPT1 [2]: B (80%< substrate protein remaining %≤ 100%)
substrate protein remaining % IKZF3 [3]: B (80%< substrate protein remaining %≤ 100%)
substrate protein remaining % WEE1 [4]: B (80%< substrate protein remaining %≤ 100%)
substrate protein remaining % IKZF1 [5]: A (0% ≤ substrate protein remaining % ≤ 80%)
substrate protein remaining % CK1α [6]: A (0% ≤ substrate protein remaining % ≤ 80%)

O=C1CCN(N2C(=O)c3ccc(CN4CCC(c5cccc(Br)c5)CC4)cc3C2=O)C(=O)N1 [GT-06804, 5-((4-(3-bromophenyl)piperidin-1-yl)methyl)-2-(2,4-dioxotetrahydropyrimidin-1(2H)-yl)isoindoline-1,3-dione]
IKZF2 substrate protein remaining % [1]: B ("B" is defined as 80%< substrate protein remaining %≤ 100%)
GSPT1 substrate protein remaining % [2]: B ("B" is defined as 80%< substrate protein remaining %≤ 100%)
IKZF3 substrate protein remaining % [3]: B ("B" is defined as 80%< substrate protein remaining %≤ 100%)
WEE1 substrate protein remaining % [4]: B ("B" is defined as 80%< substrate protein remaining %≤ 100%)
IKZF1 substrate protein remaining % [5]: B ("B" is defined as 80%< substrate protein remaining %≤ 100%)
CK1α substrate protein remaining % [6]: A ("A" is defined as 0% ≤ substrate protein remaining % ≤ 80%)

O=C1CCN(N2Cc3cc(CN4CCN(Cc5ccccc5-c5ccc(Cl)cc5)CC4)ccc3C2=O)C(=O)N1 [GT-06433, 1-(5-((4-((4'-chloro-[1,1'-biphenyl]-2-yl)methyl)piperazin-1-yl)methyl)-1-oxoisoindolin-2-yl)dihydropyrimidine-2,4(1H,3H)-dione]
IKZF2 substrate protein remaining % [1]: A ("A" is defined as 0% ≤ substrate protein remaining % ≤ 80%)
GSPT1 substrate protein remaining % [2]: A ("A" is defined as 0% ≤ substrate protein remaining % ≤ 80%)
IKZF3 substrate protein remaining % [3]: A ("A" is defined as 0% ≤ substrate protein remaining % ≤ 80%)
WEE1 substrate protein remaining % [4]: A ("A" is defined as 0% ≤ substrate protein remaining % ≤ 80%)
IKZF1 substrate protein remaining % [5]: A ("A" is defined as 0% ≤ substrate protein remaining % ≤ 80%)
CK1α substrate protein remaining % [6]: B ("B" is defined as 80%< substrate protein remaining %≤ 100%)

O=C1CCN(N2C(=O)c3ccc(CN4CCN(c5ccccc5)CC4)cc3C2=O)C(=O)N1 [GT-06719, 2-(2,4-dioxotetrahydropyrimidin-1(2H)-yl)-5-((4-phenylpiperazin-1-yl)methyl)isoindoline-1,3-dione]
IKZF2 substrate protein remaining % [1]: B ("B" is defined as 80%< substrate protein remaining %≤ 100%)
GSPT1 substrate protein remaining % [2]: B ("B" is defined as 80%< substrate protein remaining %≤ 100%)
IKZF3 substrate protein remaining % [3]: A ("A" is defined as 0% ≤ substrate protein remaining % ≤ 80%)
WEE1 substrate protein remaining % [4]: B ("B" is defined as 80%< substrate protein remaining %≤ 100%)
IKZF1 substrate protein remaining % [5]: B ("B" is defined as 80%< substrate protein remaining %≤ 100%)
CK1α substrate protein remaining % [6]: B ("B" is defined as 80%< substrate protein remaining %≤ 100%)

O=C1CCN(N2C(=O)c3ccc(CN4CCN(c5nsc6cc(F)ccc56)CC4)cc3C2=O)C(=O)N1 [GT-07526, 2-(2,4-dioxotetrahydropyrimidin-1(2H)-yl)-5-((4-(6-fluorobenzo[d]isothiazol-3-yl)piperazin-1-yl)methyl)isoindoline-1,3-dione]
substrate protein remaining % IKZF2 [1]: B (80%< substrate protein remaining %≤ 100%)
substrate protein remaining % GSPT1 [2]: A (0% ≤ substrate protein remaining % ≤ 80%)
substrate protein remaining % IKZF3 [3]: B (80%< substrate protein remaining %≤ 100%)
substrate protein remaining % WEE1 [4]: B (80%< substrate protein remaining %≤ 100%)
substrate protein remaining % IKZF1 [5]: B (80%< substrate protein remaining %≤ 100%)
substrate protein remaining % CK1α [6]: A (0% ≤ substrate protein remaining % ≤ 80%)

O=C1CCN(N2C(=O)c3ccc(CN4CC5CCC4CN5C(c4ccccc4)c4ccccc4)cc3C2=O)C(=O)N1 (stereo not drawn) [GT-06451, 5-((5-benzhydryl-2,5-diazabicyclo[2.2.2]octan-2-yl)methyl)-2-(2,4-dioxotetrahydropyrimidin-1(2H)-yl)isoindoline-1,3-dione]
IKZF2 substrate protein remaining % [1]: B ("B" is defined as 80%< substrate protein remaining %≤ 100%)
GSPT1 substrate protein remaining % [2]: B ("B" is defined as 80%< substrate protein remaining %≤ 100%)
IKZF3 substrate protein remaining % [3]: B ("B" is defined as 80%< substrate protein remaining %≤ 100%)
WEE1 substrate protein remaining % [4]: A ("A" is defined as 0% ≤ substrate protein remaining % ≤ 80%)
IKZF1 substrate protein remaining % [5]: B ("B" is defined as 80%< substrate protein remaining %≤ 100%)
CK1α substrate protein remaining % [6]: B ("B" is defined as 80%< substrate protein remaining %≤ 100%)

O=C1CCN(N2Cc3cc(CN4CC(C5CCOc6cc(F)ccc65)C4)ccc3C2=O)C(=O)N1 (stereo not drawn) [GT-07690, 1-(5-((3-(7-fluorochroman-4-yl)azetidin-1-yl)methyl)-1-oxoisoindolin-2-yl)dihydropyrimidine-2,4(1H,3H)-dione]
substrate protein remaining % IKZF2 [1]: A (0% ≤ substrate protein remaining % ≤ 80%)
substrate protein remaining % GSPT1 [2]: A (0% ≤ substrate protein remaining % ≤ 80%)
substrate protein remaining % IKZF3 [3]: B (80%< substrate protein remaining %≤ 100%)
substrate protein remaining % WEE1 [4]: B (80%< substrate protein remaining %≤ 100%)
substrate protein remaining % IKZF1 [5]: B (80%< substrate protein remaining %≤ 100%)
substrate protein remaining % CK1α [6]: A (0% ≤ substrate protein remaining % ≤ 80%)

O=C1CCN(N2Cc3cc(CN4CCC(n5cnc6cc(F)ccc65)CC4)ccc3C2=O)C(=O)N1 [GT-07503, 1-(5-((4-(5-fluoro-1H-benzo[d]imidazol-1-yl)piperidin-1-yl)methyl)-1-oxoisoindolin-2-yl)dihydropyrimidine-2,4(1H,3H)-dione]
substrate protein remaining % IKZF2 [1]: B (80%< substrate protein remaining %≤ 100%)
substrate protein remaining % GSPT1 [2]: A (0% ≤ substrate protein remaining % ≤ 80%)
substrate protein remaining % IKZF3 [3]: B (80%< substrate protein remaining %≤ 100%)
substrate protein remaining % WEE1 [4]: A (0% ≤ substrate protein remaining % ≤ 80%)
substrate protein remaining % IKZF1 [5]: A (0% ≤ substrate protein remaining % ≤ 80%)
substrate protein remaining % CK1α [6]: A (0% ≤ substrate protein remaining % ≤ 80%)

O=C1CCN(N2C(=O)c3ccc(CN4CCN(c5c(F)cccc5F)CC4)cc3C2=O)C(=O)N1 [GT-06796, 5-((4-(2,6-difluorophenyl)piperazin-1-yl)methyl)-2-(2,4-dioxotetrahydropyrimidin-1(2H)-yl)isoindoline-1,3-dione]
IKZF2 substrate protein remaining % [1]: B ("B" is defined as 80%< substrate protein remaining %≤ 100%)
GSPT1 substrate protein remaining % [2]: B ("B" is defined as 80%< substrate protein remaining %≤ 100%)
IKZF3 substrate protein remaining % [3]: B ("B" is defined as 80%< substrate protein remaining %≤ 100%)
WEE1 substrate protein remaining % [4]: A ("A" is defined as 0% ≤ substrate protein remaining % ≤ 80%)
IKZF1 substrate protein remaining % [5]: B ("B" is defined as 80%< substrate protein remaining %≤ 100%)
CK1α substrate protein remaining % [6]: B ("B" is defined as 80%< substrate protein remaining %≤ 100%)
